Experimental data from PMC7405012, “Detection of Chaetomium globosum, Ch. cochliodes and Ch. rectangulare during the Diversity Tracking of Mycotoxin-Producing Chaetomium-like Isolates Obtained in Buildings in Finland” (Toxins, 2020).
In brackets after ≈: the same amount, converted by molar mass. Read-outs that look alike come from different tables or passages of the source.

How the values were obtained:
Ch. globosum MTAV37 = assay: Resistance to biocides: ascospore germination; assay type: cell-based, Chaetomium globosum; settings: strain MTAV37, indoor Ch. globosum
Procedure: (§1) The toxicity of biocides and chemicals towards the indoor Chaetomium-like isolates and the reference indoor strains of the genera Aspergillus, Paecilomyces, Penicillium and Trichoderma was assessed in parallel with the six parameters presented in the Supplementary Materials: (1) germ tube assay (Figure S3); (2) estimation of turbidity (Figure S4); (3) visual emission of fluorescence (excitation at 360 nm); (4) visual resporulation of conidia; (5) inhibition of glucose consumption; and (6) resazurin reduction. All assays were performed in malt extract broth (12 g L^−1 malt extract, 7.2 µmol mL^−1 glucose, pH 5.5; Scharlab, Barcelona, Spain) in 96-well microtiter plates as described for the ICP assay.
(§2) The assays measuring inhibition of germination of conidia were done with spore suspensions of 1–2 × 10^6 fungal spores mL−^1. The tests were performed in malt extract broth (Oxoid, Hampshire United Kingdom) 12 g in 1 L, pH 5.5, glucose 7.1 mmol L^−1, and performed on microtiter plates as described by Bencsik et al. for the ICP assay. The germ tube germination is visualized in Figure S3, and the tests estimating turbidity and emission of fluorescence provoked by the germinated and metabolically active conidia and C. globosum ascospores are visualized in Figures S4 and S5. Examples of the tests estimating fluorescence emission, turbidity and re-sporulation of conidia and ascospores are compared in Figure S5. The difference of the endpoints measured with the different assays was between […]. The resazurin reduction assays (Figure S6) were performed as described for the ICP assay, except that the microtiter plates were visually inspected for the change of the blue/violet color of resazurin (indicating inhibition of germination of the exposed conidia) to the […] (indicating metabolic activity and germination of the exposed conidia).
(§3) The formation of germ tubes was inspected by a phase-contrast microscope (Olympus CKX41, Tokyo, Japan; magnification 400×) and an image recording software (Cellsense® standard version 11.0.06, Olympus Soft Imaging Solutions GmbH, Münster, Germany, 2012) after 1 and 2 days of incubation at 28 °C. The EC50 corresponded to the inhibition of 50% (estimated as the concentration between EC0 and EC100) of the conidia compared to the ethanol control (the growth medium containing 1% of ethanol). The tests were run in triplicate and calibrated with triclosan (CAS: 3380-34-5; Sigma Chemical Co., St. Louis, MO, USA) giving a mean SD of ±<20%.

Ch. globosum HAS5 = assay: Resistance to biocides: ascospore germination; assay type: cell-based, Chaetomium globosum; settings: strain HAS5, indoor Ch. globosum
Procedure: as §1, §2, §3

Ch. globosum RUK10 = assay: Resistance to biocides: ascospore germination; assay type: cell-based, Chaetomium globosum; settings: strain RUK10, indoor Ch. globosum
Procedure: as §1, §2, §3

Ch. globosum MTAV35 = assay: Resistance to biocides: ascospore germination; assay type: cell-based, Chaetomium globosum; settings: strain MTAV35, indoor Ch. globosum, median of four independent measurements with five methods
Procedure: as §1, §2, §3

Ch. globosum C22/LM = assay: Resistance to biocides: ascospore germination; assay type: cell-based, Chaetomium globosum; settings: strain C22/LM, indoor Ch. globosum
Procedure: as §1, §2, §3

Ch. globosum 3b/AP = assay: Resistance to biocides: ascospore germination; assay type: cell-based, Chaetomium globosum; settings: strain 3b/AP, indoor Ch. globosum
Procedure: as §1, §2, §3

Ch. globosum 2c/MT = assay: Resistance to biocides: ascospore germination; assay type: cell-based, Chaetomium globosum; settings: strain 2c/MT, indoor Ch. globosum
Procedure: as §1, §2, §3

Ch. globosum 2b/26 = assay: Resistance to biocides: ascospore germination; assay type: cell-based, Chaetomium globosum; settings: strain 2b/26, indoor Ch. globosum
Procedure: as §1, §2, §3

Ch. globosum MO9 = assay: Resistance to biocides: ascospore germination; assay type: cell-based, Chaetomium globosum; settings: strain MO9, indoor Ch. globosum
Procedure: as §1, §2, §3

Ch. globosum ABCD = assay: Resistance to biocides: ascospore germination; assay type: cell-based, Chaetomium globosum; settings: strain ABCD, indoor Ch. globosum
Procedure: as §1, §2, §3

Ch. globosum MH 52 = assay: Resistance to biocides: ascospore germination; assay type: cell-based, Chaetomium globosum; settings: strain MH 52, indoor Ch. globosum
Procedure: as §1, §2, §3

[1] = test system: Indoor Trichoderma atroviride Tri335; assay: Resistance to biocides: conidial germination; assay type: cell-based; settings: strain Tri335, indoor Trichoderma atroviride
Procedure: as §1, §2, §3

[2] = test system: Trichoderma citrinoviride SJ40; assay: Resistance to biocides: conidial germination; assay type: cell-based; settings: strain SJ40, indoor Trichoderma citrinoviride
Procedure: as §1, §2, §3

[3] = test system: Aspergillus westerdijkiae PP3; assay: Resistance to biocides: conidial germination; assay type: cell-based; settings: strain PP3, Aspergillus westerdijkiae
Procedure: as §1, §2, §3

Ch. rectangulare Mo13 = assay: Resistance to biocides: ascospore germination; assay type: cell-based
Procedure: as §1, §2, §3

[4] = test system: Outdoor Chaetomium-like strain CH1/tu; assay: Resistance to biocides: ascospore germination; assay type: cell-based, Unidentified Chaetomium-like strain
Procedure: as §1
The assays measuring inhibition of germination of conidia were done with spore suspensions of 1–2 × 10^6 fungal spores mL−^1. […] The germ tube germination is visualized in Figure S3, and the tests estimating turbidity and emission of fluorescence provoked by the germinated and metabolically active conidia and C. globosum ascospores are visualized in Figures S4 and S5. Examples of the tests estimating fluorescence emission, turbidity and re-sporulation of conidia and ascospores are compared in Figure S5. The difference of the endpoints measured with the different assays was between 38% and <28.5%. […]

[5] = Chaetomium globosum, read-out: EC50
[6] = Chaetomium globosum, MH52, read-out: EC50

**Q.** With `Oc1cc(Cl)ccc1Oc1ccc(Cl)cc1Cl` [Triclosan, 5-Chloro-2-(2,4-dichlorophenoxy)phenol] as the compound, how does the EC50 (Ch. globosum MTAV37; [5]) read?
**A.** 4 µg/mL (≈ 0.0138 mM)

**Q.** What about the EC50 (Ch. globosum HAS5; [5]) of the same compound?
**A.** 2 µg/mL (≈ 0.00691 mM)

**Q.** What about the EC50 (Ch. globosum RUK10; [5]) of the same compound?
**A.** 2 µg/mL (≈ 0.00691 mM)

**Q.** And the EC50 (Ch. globosum MTAV35; [5])?
**A.** 2 µg/mL (≈ 0.00691 mM)

**Q.** And the EC50 (Ch. globosum C22/LM; [5])?
**A.** 4 µg/mL (≈ 0.0138 mM)

**Q.** What about the EC50 (Ch. globosum 3b/AP; [5]) of the same compound?
**A.** 4 µg/mL (≈ 0.0138 mM)

**Q.** And the EC50 (Ch. globosum 2c/MT; [5])?
**A.** 4 µg/mL (≈ 0.0138 mM)

**Q.** And the EC50 (Ch. globosum 2b/26; [5])?
**A.** 4 µg/mL (≈ 0.0138 mM)

**Q.** And the EC50 (Ch. globosum MO9; [5])?
**A.** 2 µg/mL (≈ 0.00691 mM)

**Q.** And the EC50 (Ch. globosum ABCD; [5])?
**A.** 4 µg/mL (≈ 0.0138 mM)

**Q.** What about the EC50 (Ch. globosum MH 52; [6]) of the same compound?
**A.** 2 µg/mL (≈ 0.00691 mM)

**Q.** And the EC50 ([1]; read-out: EC50)?
**A.** 30 µg/mL (≈ 0.104 mM)

**Q.** And the EC50 ([2]; read-out: EC50)?
**A.** 8 µg/mL (≈ 0.0276 mM)

**Q.** What about the EC50 ([3]; read-out: EC50) of the same compound?
**A.** 16 µg/mL (≈ 0.0553 mM)

**Q.** How did the EC50 (Ch. globosum HAS5) turn out when `NCl` [Chloramine, chloramine] was run?
**A.** 2500 µg/mL (≈ 48.6 mM)

**Q.** And the EC50 (Ch. globosum RUK10)?
**A.** 2500 µg/mL (≈ 48.6 mM)

**Q.** And the EC50 (Ch. globosum C22/LM)?
**A.** 2500 µg/mL (≈ 48.6 mM)

**Q.** What about the EC50 (Ch. globosum 3b/AP) of the same compound?
**A.** 2500 µg/mL (≈ 48.6 mM)

**Q.** What about the EC50 (Ch. globosum 2c/MT) of the same compound?
**A.** 2500 µg/mL (≈ 48.6 mM)

**Q.** And the EC50 (Ch. globosum 2b/26)?
**A.** 2500 µg/mL (≈ 48.6 mM)

**Q.** And the EC50 (Ch. globosum MO9)?
**A.** 2500 µg/mL (≈ 48.6 mM)

**Q.** And the EC50 [3]?
**A.** 600 µg/mL (≈ 11.7 mM)

**Q.** Which EC50 (Ch. globosum MTAV37; [5]) does the source give for `OCCOc1ccccc1` [Phenoxy-ethanol, phenoxyethanol] here?
**A.** 700 µg/mL (≈ 5.07 mM)

**Q.** What about the EC50 (Ch. globosum HAS5; [5]) of the same compound?
**A.** 1500 µg/mL (≈ 10.9 mM)

**Q.** What about the EC50 (Ch. globosum RUK10; [5]) of the same compound?
**A.** 1500 µg/mL (≈ 10.9 mM)

**Q.** And the EC50 (Ch. globosum MTAV35; [5])?
**A.** 700 µg/mL (≈ 5.07 mM)

**Q.** And the EC50 (Ch. globosum C22/LM; [5])?
**A.** 1500 µg/mL (≈ 10.9 mM)

**Q.** And the EC50 (Ch. globosum 3b/AP; [5])?
**A.** 1500 µg/mL (≈ 10.9 mM)

**Q.** What about the EC50 (Ch. globosum 2c/MT; [5]) of the same compound?
**A.** 1500 µg/mL (≈ 10.9 mM)

**Q.** What about the EC50 (Ch. globosum 2b/26; [5]) of the same compound?
**A.** 1500 µg/mL (≈ 10.9 mM)

**Q.** And the EC50 (Ch. globosum MO9; [5])?
**A.** 700 µg/mL (≈ 5.07 mM)

**Q.** What about the EC50 (Ch. globosum ABCD; [5]) of the same compound?
**A.** 1500 µg/mL (≈ 10.9 mM)

**Q.** What about the EC50 (Ch. globosum MH 52; [6]) of the same compound?
**A.** 1500 µg/mL (≈ 10.9 mM)

**Q.** And the EC50 ([1]; read-out: EC50)?
**A.** 3000 µg/mL (≈ 21.7 mM)

**Q.** What about the EC50 ([2]; read-out: EC50) of the same compound?
**A.** 1500 µg/mL (≈ 10.9 mM)

**Q.** What about the EC50 ([3]; read-out: EC50) of the same compound?
**A.** 1500 µg/mL (≈ 10.9 mM)

**Q.** Which results are given for `O=BOB(O)OB(O)OB=O` [Borax, sodium tetraborate]?
**A.** EC50 (Ch. globosum MTAV37; [5]): 5000 µg/mL; EC50 (Ch. globosum HAS5; [5]): > 5000 µg/mL; EC50 (Ch. globosum RUK10; [5]): 5000 µg/mL; EC50 (Ch. globosum MTAV35; [5]): 5000 µg/mL; EC50 (Ch. globosum C22/LM; [5]): > 5000 µg/mL; EC50 (Ch. globosum 3b/AP; [5]): > 5000 µg/mL; EC50 (Ch. globosum 2c/MT; [5]): > 5000 µg/mL; EC50 (Ch. globosum 2b/26; [5]): > 5000 µg/mL; EC50 (Ch. globosum MO9; [5]): > 5000 µg/mL; EC50 (Ch. globosum ABCD; [5]): 5000 µg/mL; EC50 (Ch. globosum MH 52; [6]): 5000 µg/mL; EC50 (Ch. rectangulare Mo13): > 5000 µg/mL; EC50 ([4]; read-out: EC50): 1200 µg/mL; EC50 ([1]; read-out: EC50): 2500 µg/mL; EC50 ([2]; read-out: EC50): 1200 µg/mL; EC50 ([3]; read-out: EC50): 5000 µg/mL

**Q.** Which EC50 (Ch. globosum MTAV37) does the source give for “polyhexamethylene biguanide hydrochloride [PHMB]” here?
**A.** 4 µg/mL

**Q.** And the EC50 (Ch. globosum HAS5)?
**A.** 8 µg/mL

**Q.** What about the EC50 (Ch. globosum RUK10) of the same compound?
**A.** 4 µg/mL

**Q.** And the EC50 (Ch. globosum MTAV35)?
**A.** 4 µg/mL

**Q.** What about the EC50 (Ch. globosum C22/LM) of the same compound?
**A.** 8 µg/mL

**Q.** And the EC50 (Ch. globosum 3b/AP)?
**A.** 8 µg/mL

**Q.** What about the EC50 (Ch. globosum 2c/MT) of the same compound?
**A.** 8 µg/mL

**Q.** What about the EC50 (Ch. globosum 2b/26) of the same compound?
**A.** 8 µg/mL

**Q.** And the EC50 (Ch. globosum MO9)?
**A.** 4 µg/mL

**Q.** What about the EC50 (Ch. globosum ABCD) of the same compound?
**A.** 4 µg/mL

**Q.** What about the EC50 (Ch. globosum MH 52) of the same compound?
**A.** 4 µg/mL

**Q.** What about the EC50 (Ch. rectangulare Mo13; strain Mo13, indoor Ch. rectangulare) of the same compound?
**A.** 4 µg/mL

**Q.** And the EC50 [4]?
**A.** 4 µg/mL

**Q.** And the EC50 [1]?
**A.** 4 µg/mL

**Q.** What about the EC50 [2] of the same compound?
**A.** 2 µg/mL

**Q.** And the EC50 [3]?
**A.** 60 µg/mL
